These results are taken from article PMC12040169 (PLOS Biology, 2025).

One may read the viability as a read-out of living cells in per cent, often relative to untreated cells.

Structures are written as SMILES.

The data set is described as follows: in vitro. The settings on record: human, hela cells, % viability.
As for `C[C@@H](c1ccccc1)n1c(=O)[nH]c2ncc(-c3cccc4ccccc34)nc21` [CBK064710], the viability at 28.5 h, 10 µM was 97%.

As to `COc1ccc(C(C)C)cc1-c1cnc2[nH]c(=O)n(-c3ccc4[nH]ccc4c3)c2n1` [CBK064714], the viability at 28.5 h, 10 µM came to 90.7%.

As to `COc1ccc(-c2cnc3[nH]c(=O)n(Cc4cccs4)c3n2)c(OC)c1OC` [CBK064716], the viability at 28.5 h, 10 µM was 97.2%.

For the compound `C[C@@H](c1ccccc1)n1c(=O)[nH]c2ncc(-c3cncc4ccccc34)nc21` [CBK064726], the viability at 28.5 h, 10 µM was found to be 73.9%.

With `CC(C)(CO)Cn1c(=O)[nH]c2ncc(-c3ccc(F)c(Cl)c3)nc21` [CBK064737], the viability at 28.5 h, 10 µM amounted to 102%.

For `CC(C)[C@@H](CO)n1c(=O)[nH]c2ncc(-c3ccc(N4CCOCC4)cc3)nc21` [CBK064770], the viability at 28.5 h, 10 µM stood at 110%.

Regarding `COc1ccc(-c2cnc3[nH]c(=O)n([C@@H](CO)C(C)C)c3n2)c(OC)c1OC` [CBK064774], the viability at 28.5 h, 10 µM came to 94.3%.

On to `CC(C)(CO)Cn1c(=O)[nH]c2ncc(-c3ccc(C(N)=O)cc3)nc21` [CBK064787], for which the viability at 28.5 h, 10 µM was 88.5%.

For the compound `O=c1[nH]c2ncc(-c3ccccc3)nc2n1CCCN1CCOCC1` [CBK064805], the viability at 28.5 h, 10 µM was found to be 111%.

Take `CN(C)C(=O)c1ccc(-c2cnc3[nH]c(=O)n(CCCN4CCOCC4)c3n2)cc1` [CBK064828]: the viability at 28.5 h, 10 µM turned out to be 108%.

On to `COc1ccc(-c2cnc3[nH]c(=O)n(CC(C)(C)CO)c3n2)c(OC)c1OC` [CBK064833], for which the viability at 28.5 h, 10 µM stood at 91.8%.

Regarding `O=c1[nH]c2ncc(-c3cccc4ncccc34)nc2n1C1CCCCC1` [CBK064861], the viability at 28.5 h, 10 µM was found to be 109%.

`O=C(NC1CC1)c1ccc(-c2cnc3[nH]c(=O)n(CC4CCOCC4)c3n2)cc1` [CBK064890]: the viability at 28.5 h, 10 µM was 85.2%.

`COc1ncc(-c2cnc3[nH]c(=O)n(CC4CCOCC4)c3n2)cn1` [CBK064898]: the viability at 28.5 h, 10 µM stood at 98.1%.

For `CN1CCN(c2ccc(-c3cnc4[nH]c(=O)n(C5CC5)c4n3)cc2)CC1` [CBK064899], the viability at 28.5 h, 10 µM worked out at 89.7%.

`COc1ccc(C(C)C)cc1-c1cnc2[nH]c(=O)n(C3CC3)c2n1` [CBK064915]: the viability at 28.5 h, 10 µM was determined as 91.2%.

Regarding `O=C(NC1CC1)c1ccc(-c2cnc3[nH]c(=O)n(-c4ccc5[nH]ccc5c4)c3n2)cc1` [CBK064916], the viability at 28.5 h, 10 µM was 103%.

In the case of `O=c1[nH]c2ncc(-c3ccc4c(c3)OCO4)nc2n1C1CC1` [CBK064922], the viability at 28.5 h, 10 µM is 98.5%.

Turning to `COCCCn1c(=O)[nH]c2ncc(-c3cccnc3)nc21` [CBK064929], the viability at 28.5 h, 10 µM came to 104%.

For the compound `NS(=O)(=O)c1ccc(Cn2c(=O)[nH]c3ncc(-c4ccco4)nc32)cc1` [CBK064948], the viability at 28.5 h, 10 µM is 96.8%.

On to `CN(C)CCNC(=O)c1ccc(-c2cnc3[nH]c(=O)n(C4CCCC4)c3n2)cc1` [CBK064957], for which the viability at 28.5 h, 10 µM amounted to 110%.

With `COc1ccc(C(C)C)cc1-c1cnc2[nH]c(=O)n([C@H](CO)C(C)C)c2n1` [CBK064962], the viability at 28.5 h, 10 µM was 96.2%.

Take `CCCC/C=C/c1cnc2[nH]c(=O)n([C@H](CO)C(C)C)c2n1` [CBK064970]: the viability at 28.5 h, 10 µM was found to be 95%.

As for `O=c1[nH]c2ncc(-c3ccncc3)nc2n1C1CCCC1` [CBK064972], the viability at 28.5 h, 10 µM worked out at 116%.

As to `O=c1[nH]c2ncc(-c3ccoc3)nc2n1C1CCOCC1` [CBK064973], the viability at 28.5 h, 10 µM was determined as 119%.

As to `COc1cncc(-c2cnc3[nH]c(=O)n([C@H](CO)C(C)C)c3n2)c1` [CBK064977], the viability at 28.5 h, 10 µM is 107%.

Consider `C[C@H](c1ccccc1)n1c(=O)[nH]c2ncc(-c3cccc(/C=C/C(=O)O)c3)nc21` [CBK064983], for which the viability at 28.5 h, 10 µM is 83.4%.

As to `CC(C)[C@H](CO)n1c(=O)[nH]c2ncc(-c3cccc4ccccc34)nc21` [CBK064985], the viability at 28.5 h, 10 µM worked out at 104%.

On to `CC(C)[C@H](CO)n1c(=O)[nH]c2ncc(-c3cccc(CO)c3)nc21` [CBK065001], for which the viability at 28.5 h, 10 µM was 96.1%.

Take `COc1ccc(-c2cnc3[nH]c(=O)n([C@H](CO)C(C)C)c3n2)c(OC)c1OC` [CBK065008]: the viability at 28.5 h, 10 µM is 99.1%.

Regarding `CC(C)Cn1c(=O)[nH]c2ncc(-c3ccc(O)cc3)nc21` [CBK065011], the viability at 28.5 h, 10 µM came to 105%.

As for `COc1ccc(-n2c(=O)[nH]c3ncc(-c4ccco4)nc32)c(C)c1` [CBK065019], the viability at 28.5 h, 10 µM amounted to 101%.

Turning to `O=c1[nH]c2ncc(-c3cccc(Br)c3)nc2n1Cc1ccccn1` [CBK065020], the viability at 28.5 h, 10 µM was 101%.

On to `CN(C)CCn1c(=O)[nH]c2ncc(-c3cc(C(F)(F)F)cc(C(F)(F)F)c3)nc21` [CBK065028], for which the viability at 28.5 h, 10 µM was 112%.

On to `O=C(NCCO)c1cccc(-c2cnc3[nH]c(=O)n(Cc4ccccn4)c3n2)c1` [CBK065034], for which the viability at 28.5 h, 10 µM was 96.5%.

For `COc1cccc(-c2cnc3[nH]c(=O)n(CCCO)c3n2)c1` [CBK065036], the viability at 28.5 h, 10 µM amounted to 93.3%.

For `O=C(NC1CCCC1)c1ccc(-c2cnc3[nH]c(=O)n(Cc4ccc(Cl)cc4)c3n2)cc1` [CBK065039], the viability at 28.5 h, 10 µM came to 94.7%.

As to `O=C(NCCO)c1ccc(-c2cnc3[nH]c(=O)n(C4CCOCC4)c3n2)cc1` [CBK065041], the viability at 28.5 h, 10 µM was 108%.

On to `COCCCn1c(=O)[nH]c2ncc(-c3cccc(C(=O)NCCO)c3)nc21` [CBK065042], for which the viability at 28.5 h, 10 µM came to 118%.

With `CC(C)[C@H](CO)n1c(=O)[nH]c2ncc(-c3cccc(/C=C/C(=O)O)c3)nc21` [CBK065051], the viability at 28.5 h, 10 µM worked out at 92.5%.

With `CS(=O)(=O)Nc1cccc(-c2cnc3[nH]c(=O)n(Cc4ccc(S(C)(=O)=O)cc4)c3n2)c1` [CBK065061], the viability at 28.5 h, 10 µM was determined as 98.6%.

For the compound `CN(C)CCNC(=O)c1cccc(-c2cnc3[nH]c(=O)n(Cc4ccc(S(C)(=O)=O)cc4)c3n2)c1` [CBK065069], the viability at 28.5 h, 10 µM amounted to 109%.

Turning to `O=C(O)/C=C/c1cccc(-c2cnc3[nH]c(=O)n(C4CC4)c3n2)c1` [CBK065091], the viability at 28.5 h, 10 µM stood at 93.5%.

Regarding `O=c1[nH]c2ncc(-c3cncc4ccccc34)nc2n1Cc1ccccc1` [CBK065113], the viability at 28.5 h, 10 µM amounted to 99.1%.

On to `COc1ncc(-c2cncc(N3CCN(c4ccc(OC)c(OC)c4)CC3)n2)c(OC)n1` [CBK065169], for which the viability at 28.5 h, 10 µM was 89.5%.

With `COc1ccc(C(C)C)cc1-c1cncc(NCCc2c[nH]c3ccccc23)n1` [CBK065174], the viability at 28.5 h, 10 µM amounted to 96.5%.

Take `COc1cc(Nc2cncc(-c3ccc4ccccc4c3)n2)cc(OC)c1OC` [CBK065176]: the viability at 28.5 h, 10 µM is 61.7%.

Regarding `c1cncc(-c2cncc(NCCc3c[nH]c4ccccc34)n2)c1` [CBK065186], the viability at 28.5 h, 10 µM worked out at 89.7%.

Regarding `CC(C)c1ccc(-c2cncc(NCCCN3CCOCC3)n2)cc1` [CBK065196], the viability at 28.5 h, 10 µM worked out at 97.7%.

Regarding `COc1ccc(C(C)C)cc1-c1cncc(NCC(C)(C)CO)n1` [CBK065206], the viability at 28.5 h, 10 µM is 106%.

In the case of `COc1ncc(-c2cncc(NCc3cccc(Cl)c3)n2)c(OC)n1` [CBK065211], the viability at 28.5 h, 10 µM worked out at 106%.

For `COc1cc(-c2cncc(Nc3cccc(C(F)(F)F)c3)n2)cc(OC)c1OC` [CBK065213], the viability at 28.5 h, 10 µM worked out at 120%.

Take `CN(C)CCNC(=O)c1cccc(-c2cncc(Nc3cccc(Cl)c3)n2)c1` [CBK065229]: the viability at 28.5 h, 10 µM amounted to 104%.

Consider `Clc1ccc(Nc2cncc(-c3cccnc3)n2)cc1` [CBK065234], for which the viability at 28.5 h, 10 µM is 105%.

As to `COc1cc(-c2cncc(NCc3ccco3)n2)cc(OC)c1OC` [CBK065259], the viability at 28.5 h, 10 µM came out at 99.9%.

`Nc1cccc(-c2cncc(Nc3ccccc3)n2)c1` [CBK065265]: the viability at 28.5 h, 10 µM was 96.2%.

For `COc1cc(-c2cncc(NCCCO)n2)cc(OC)c1OC` [CBK065271], the viability at 28.5 h, 10 µM is 95.5%.

As to `COc1cc(Nc2cncc(-c3cccc(F)c3)n2)cc(OC)c1OC` [CBK065272], the viability at 28.5 h, 10 µM amounted to 93%.

`CCC(CO)Nc1cncc(-c2cccc(N)c2)n1` (stereo not drawn) [CBK065278]: the viability at 28.5 h, 10 µM was determined as 103%.

Take `COc1ncc(-c2cncc(Nc3ccccc3)n2)c(OC)n1` [CBK065282]: the viability at 28.5 h, 10 µM is 100%.

Turning to `Clc1cccc(CNc2cncc(-c3cccnc3)n2)c1` [CBK065283], the viability at 28.5 h, 10 µM came to 104%.

In the case of `COc1ccc(C(C)C)cc1-c1cncc(Nc2ccc(Cl)cc2)n1` [CBK065285], the viability at 28.5 h, 10 µM was found to be 108%.

Regarding `COc1ncc(-c2cncc(N3CCCN(C)CC3)n2)c(OC)n1` [CBK065286], the viability at 28.5 h, 10 µM came out at 104%.

As for `CCCC/C=C/c1cncc(NCc2cccc(Cl)c2)n1` [CBK065293], the viability at 28.5 h, 10 µM stood at 97.3%.

On to `CN1CCCN(c2cncc(-c3ccc(F)c(Cl)c3)n2)CC1` [CBK065297], for which the viability at 28.5 h, 10 µM stood at 96.4%.

Take `COc1cc(-c2cncc(N(C)CCN(C)C)n2)cc(OC)c1OC` [CBK065312]: the viability at 28.5 h, 10 µM was 90.5%.

As for `c1cncc(-c2cncc(NCc3ccc4c(c3)OCO4)n2)c1` [CBK065313], the viability at 28.5 h, 10 µM is 94.6%.

Take `CCNc1cncc(-c2ccc(F)c(Cl)c2)n1` [CBK065322]: the viability at 28.5 h, 10 µM is 101%.

Consider `Clc1cccc(-c2cncc(NCc3ccc4c(c3)OCO4)n2)c1` [CBK065323], for which the viability at 28.5 h, 10 µM was 94.8%.

Take `CC(C)[C@H](CO)Nc1cncc(-c2ccccc2CO)n1` [CBK065326]: the viability at 28.5 h, 10 µM was 88.6%.

For the compound `COc1cncc(-c2cncc(N[C@H](CO)C(C)C)n2)c1` [CBK065329], the viability at 28.5 h, 10 µM was determined as 106%.

Regarding `OCc1ccccc1-c1cncc(N2CCCC2CO)n1` (stereo not drawn) [CBK065333], the viability at 28.5 h, 10 µM is 106%.

Consider `CCNc1cncc(-c2cc(OC)c(OC)c(OC)c2)n1` [CBK065336], for which the viability at 28.5 h, 10 µM is 99.1%.

On to `Fc1ccc(-c2cncc(NCc3ccncc3)n2)cc1Cl` [CBK065343], for which the viability at 28.5 h, 10 µM was 94.7%.

On to `CC(C)c1ccc(-c2cncc(NCc3cccc(Cl)c3)n2)cc1` [CBK065347], for which the viability at 28.5 h, 10 µM amounted to 106%.

In the case of `CCNc1cncc(-c2cncc(OC)c2)n1` [CBK065366], the viability at 28.5 h, 10 µM stood at 91.9%.

With `CCNc1cncc(-c2ccc(OC)cc2)n1` [CBK065370], the viability at 28.5 h, 10 µM amounted to 92.1%.

On to `CCCC/C=C/c1cncc(N(C)CCN(C)C)n1` [CBK065374], for which the viability at 28.5 h, 10 µM stood at 91.1%.
